One block for each compound: values may come before it. Calls of active or inactive are those of the source. The calls are words filed in the database; no cut-off is given here.
Tests used:
Format in all cases: functional, cell-based
PC-12 [1] = assay: Inhibition of PC12 cell differentiation at 100 ug/ml (No effect); conditions: Rattus norvegicus
[2] = target: High affinity nerve growth factor receptor (Rattus norvegicus) (UniProt P35739); assay: Inhibition of NGF receptor-induced differentiation of PC12 cells at 100 ug/ml (No effect); conditions: PC-12
Chain of High affinity nerve growth factor receptor (Rattus norvegicus) (P35739 whole entry): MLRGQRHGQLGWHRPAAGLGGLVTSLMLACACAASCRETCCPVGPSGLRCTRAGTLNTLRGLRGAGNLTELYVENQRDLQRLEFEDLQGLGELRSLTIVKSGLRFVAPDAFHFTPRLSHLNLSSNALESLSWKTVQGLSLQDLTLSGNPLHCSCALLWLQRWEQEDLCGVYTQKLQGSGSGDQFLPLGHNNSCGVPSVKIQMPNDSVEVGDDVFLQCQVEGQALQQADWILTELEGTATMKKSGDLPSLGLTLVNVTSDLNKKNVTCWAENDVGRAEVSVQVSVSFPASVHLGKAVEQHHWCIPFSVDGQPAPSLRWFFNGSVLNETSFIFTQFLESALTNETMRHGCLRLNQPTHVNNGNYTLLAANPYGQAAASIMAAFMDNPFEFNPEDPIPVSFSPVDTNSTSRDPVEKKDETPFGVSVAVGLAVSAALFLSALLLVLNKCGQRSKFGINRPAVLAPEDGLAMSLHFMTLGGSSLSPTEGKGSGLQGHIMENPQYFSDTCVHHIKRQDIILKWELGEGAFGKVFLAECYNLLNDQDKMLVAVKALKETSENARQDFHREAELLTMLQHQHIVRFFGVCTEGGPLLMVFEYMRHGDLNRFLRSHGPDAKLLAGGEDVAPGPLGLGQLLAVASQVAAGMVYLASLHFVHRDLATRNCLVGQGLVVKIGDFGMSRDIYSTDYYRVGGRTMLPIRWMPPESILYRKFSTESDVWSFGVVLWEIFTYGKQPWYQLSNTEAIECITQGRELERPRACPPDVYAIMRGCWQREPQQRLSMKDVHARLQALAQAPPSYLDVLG

PC-12 [3] = assay: Induction of PC12 cell differentiation at 100 ug/ml; conditions: Rattus norvegicus
[4] = target: High affinity nerve growth factor receptor (Rattus norvegicus) (UniProt P35739); assay: Induction of NGF receptor-induced differentiation of PC12 cells at 100 and 10 ug/ml; conditions: PC-12
[5] = target: High affinity nerve growth factor receptor (Rattus norvegicus) (UniProt P35739); assay: Induction of NGF receptor-induced differentiation of PC12 cells at 1-100 ug/ml; conditions: PC-12

- NA [2]: inactive
Compound: NC(=O)c1csc([C@@H]2O[C@H](CO)C2CO)n1 (stereo not given in full)
- NA (PC-12 [1]): inactive

- Induction [4]: Active
Compound: NC(=O)c1csc([C@@H]2C[C@H](CO)C2CO)n1 (stereo not given in full)
- Induction (PC-12 [3]): Active

- Activity [5]: Active
Compound: NC(=O)c1csc([C@@H]2O[C@H](CO)C(O)[C@H]2O)n1 (single isomer, unassigned)
